Laboratory results published in patent US9932314B2, “Pyrazole compounds and their use as T-type calcium channel blockers” (IDORSIA PHARMACEUTICALS LTD, priority 2015, dated 2018).

biological target: T1, voltage-dependent T-type calcium channel subunit alpha-1G (Cav3.2) (Homo sapiens, UniProt O95180); experiment: FLIPR calcium flux assay, HEK293 cells recombinantly expressing Cav3.2; type: cell-based; settings: Cav3.2-channel, Fluo-4-AM, 3 min incubation, stimulation with 10 mM CaCl2
T1 construct: expressed in transfected cells; host or cells: HEK293
How it was run: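 Calcium influx was triggered by adding CaCl2 to 10 mM final, 3 min after compounds in tetraethylammonium-based buffer, pH 7.2, reached Fluo-4-AM-loaded recombinant HEK293 cells. The integrated kinetic fluorescence signal per concentration gave concentration-response curves by non-linear sigmoidal regression.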

T1 sequence (O95180 whole entry): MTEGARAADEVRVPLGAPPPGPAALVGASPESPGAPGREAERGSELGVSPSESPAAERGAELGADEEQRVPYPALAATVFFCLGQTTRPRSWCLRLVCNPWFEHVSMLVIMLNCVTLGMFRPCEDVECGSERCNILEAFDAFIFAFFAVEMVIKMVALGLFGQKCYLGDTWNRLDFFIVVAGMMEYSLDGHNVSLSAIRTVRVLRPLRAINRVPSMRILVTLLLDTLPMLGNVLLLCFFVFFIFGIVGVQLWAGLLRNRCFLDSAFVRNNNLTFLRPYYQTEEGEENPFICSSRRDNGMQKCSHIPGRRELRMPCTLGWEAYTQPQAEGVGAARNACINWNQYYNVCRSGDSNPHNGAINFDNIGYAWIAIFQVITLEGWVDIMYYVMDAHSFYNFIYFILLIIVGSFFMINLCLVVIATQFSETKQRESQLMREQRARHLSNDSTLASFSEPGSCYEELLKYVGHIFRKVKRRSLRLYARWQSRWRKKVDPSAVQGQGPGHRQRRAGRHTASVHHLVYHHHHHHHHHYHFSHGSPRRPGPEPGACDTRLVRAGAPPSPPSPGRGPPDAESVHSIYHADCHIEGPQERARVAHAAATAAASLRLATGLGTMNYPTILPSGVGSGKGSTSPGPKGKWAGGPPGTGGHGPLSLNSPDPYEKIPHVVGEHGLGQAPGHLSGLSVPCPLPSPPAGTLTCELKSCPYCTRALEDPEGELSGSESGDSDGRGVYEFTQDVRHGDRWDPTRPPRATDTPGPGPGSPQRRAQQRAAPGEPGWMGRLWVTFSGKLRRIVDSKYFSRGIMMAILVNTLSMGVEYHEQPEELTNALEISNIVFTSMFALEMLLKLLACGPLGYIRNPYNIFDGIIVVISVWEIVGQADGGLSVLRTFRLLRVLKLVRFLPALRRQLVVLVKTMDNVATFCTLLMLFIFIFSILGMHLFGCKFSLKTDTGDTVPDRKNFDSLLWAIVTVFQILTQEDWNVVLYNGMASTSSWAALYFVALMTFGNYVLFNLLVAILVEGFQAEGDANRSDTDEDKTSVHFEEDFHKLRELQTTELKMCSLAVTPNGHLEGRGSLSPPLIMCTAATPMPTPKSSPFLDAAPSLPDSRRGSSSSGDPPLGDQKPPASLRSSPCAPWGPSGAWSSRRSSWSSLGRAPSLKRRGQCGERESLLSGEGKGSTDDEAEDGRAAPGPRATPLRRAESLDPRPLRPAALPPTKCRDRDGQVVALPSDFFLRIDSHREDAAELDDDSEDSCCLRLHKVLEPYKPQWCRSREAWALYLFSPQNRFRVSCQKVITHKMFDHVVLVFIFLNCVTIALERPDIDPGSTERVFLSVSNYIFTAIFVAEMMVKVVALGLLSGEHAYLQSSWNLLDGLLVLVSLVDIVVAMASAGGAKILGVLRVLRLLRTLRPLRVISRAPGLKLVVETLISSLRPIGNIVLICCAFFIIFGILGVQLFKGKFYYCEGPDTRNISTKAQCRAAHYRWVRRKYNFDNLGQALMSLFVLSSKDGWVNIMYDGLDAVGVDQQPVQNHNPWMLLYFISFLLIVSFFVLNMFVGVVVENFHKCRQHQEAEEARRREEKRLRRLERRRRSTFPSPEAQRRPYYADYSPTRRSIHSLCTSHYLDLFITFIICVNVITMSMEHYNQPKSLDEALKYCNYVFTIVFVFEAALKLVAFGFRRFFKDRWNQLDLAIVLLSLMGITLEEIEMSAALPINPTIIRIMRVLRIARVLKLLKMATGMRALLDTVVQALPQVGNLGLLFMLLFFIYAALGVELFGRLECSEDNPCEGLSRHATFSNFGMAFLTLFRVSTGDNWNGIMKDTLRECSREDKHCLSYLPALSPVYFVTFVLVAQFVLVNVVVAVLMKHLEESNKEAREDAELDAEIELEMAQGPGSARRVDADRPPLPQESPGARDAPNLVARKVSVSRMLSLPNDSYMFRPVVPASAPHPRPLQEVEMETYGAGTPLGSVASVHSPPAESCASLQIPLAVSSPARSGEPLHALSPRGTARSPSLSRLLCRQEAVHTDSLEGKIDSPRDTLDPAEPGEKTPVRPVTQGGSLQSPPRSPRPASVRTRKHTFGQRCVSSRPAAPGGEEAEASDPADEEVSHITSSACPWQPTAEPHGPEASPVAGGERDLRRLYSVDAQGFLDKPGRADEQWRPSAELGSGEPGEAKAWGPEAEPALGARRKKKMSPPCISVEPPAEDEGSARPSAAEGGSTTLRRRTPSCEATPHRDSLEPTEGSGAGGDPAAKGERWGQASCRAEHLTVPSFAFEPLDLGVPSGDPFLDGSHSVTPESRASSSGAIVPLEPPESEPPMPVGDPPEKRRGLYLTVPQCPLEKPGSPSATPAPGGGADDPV

First: N#Cc1ccc(Cn2ccc(NC(=O)Cc3ccc(N4CCC4)nc3)n2)cc1 [Example 111, 2-(6-Azetidin-1-yl-pyridin-3-yl)-N-[1-(4-cyano-benzyl)-1H-pyrazol-3-yl]-acetamide]
Second: O=C(Cc1ccc(N2CCCC2)nc1)Nc1ccn(Cc2ccc(F)cc2)n1 [Example 177, N-[1-(4-Fluoro-benzyl)-1H-pyrazol-3-yl]-2-(6-pyrrolidin-1-yl-pyridin-3-yl)-acetamide]
The IC50 of the first is 74-fold higher: 1.33 µM for the first, 0.018 µM for the second.

Compared with `O=C(Cc1ccc(N2CC[C@@H](F)C2)cc1)Nc1ccn(Cc2ccc(F)c(F)c2)n1` [Example 68, N-[1-(3,4-Difluoro-benzyl)-1H-pyrazol-3-yl]-2-[4-((R)-3-fluoro-pyrrolidin-1-yl)-phenyl]-acetamide], `N#Cc1ccc(Cn2ccc(NC(=O)Cc3ccc(N4CC[C@@H](F)C4)cc3)n2)cc1` [Example 69, N-[1-(4-Cyano-benzyl)-1H-pyrazol-3-yl]-2-[4-((R)-3-fluoro-pyrrolidin-1-yl)-phenyl]-acetamide] is 3.3-fold higher in IC50: 0.0048 µM for the first, 0.016 µM for the second. The first is the more potent here.

First: CC1(C)COc2ccc(CC(=O)Nc3ccn(Cc4ccc(C#N)cn4)n3)cc21 [Example 379, N-[1-(5-Cyano-pyridin-2-ylmethyl)-1H-pyrazol-3-yl]-2-(3,3-dimethyl-2,3-dihydro-benzofuran-5-yl)-acetamide]
Second: N#Cc1ccc(Cn2ccc(NC(=O)Cc3ccc(C4(O)CC4)cc3)n2)nc1 [Example 356, N-[1-(5-Cyano-pyridin-2-ylmethyl)-1H-pyrazol-3-yl]-2-[4-(1-hydroxy-cyclopropyl)-phenyl]-acetamide]
The IC50 of the first is 2-fold higher: 0.658 µM for the first, 0.327 µM for the second. The second is the more potent here.

Compared with `N#Cc1nc(Cn2ccc(NC(=O)Cc3ccc(OCC(F)(F)F)c(C4CC4)c3)n2)ccc1F` [Example 408, N-[1-(6-Cyano-5-fluoro-pyridin-2-ylmethyl)-1H-pyrazol-3-yl]-2-[3-cyclopropyl-4-(2,2,2-trifluoro-ethoxy)-phenyl]-acetamide], `Cc1cc(CC(=O)Nc2ccn(Cc3ccc(F)c(C#N)n3)n2)ccc1OCC(F)(F)F` [Example 391, N-[1-(6-Cyano-5-fluoro-pyridin-2-ylmethyl)-1H-pyrazol-3-yl]-2-[3-methyl-4-(2,2,2-trifluoro-ethoxy)-phenyl]-acetamide] is 4-fold lower in IC50: 0.0085 µM for the first, 0.0021 µM for the second. The second is the more potent here.

Going from `CN(c1ccc(CC(=O)Nc2ccn(Cc3ccc(C#N)cc3)n2)cn1)C1CC1` [Example 166, N-[1-(4-Cyano-benzyl)-1H-pyrazol-3-yl]-2-[6-(cyclopropyl(methyl)amino)-pyridin-3-yl]-acetamide] to `CN(C)c1ccc(CC(=O)Nc2ccn(Cc3ccc(OC(F)F)cc3)n2)cn1` [Example 36, N-[1-(4-Difluoromethoxy-benzyl)-1H-pyrazol-3-yl]-2-(6-dimethylamino-pyridin-3-yl)-acetamide], the IC50 rises from 0.086 µM to 0.16 µM (1.9-fold).

Going from `CC(C)c1ccc(CC(=O)Nc2ccn(Cc3ccc(N4CC[C@H](F)C4)cn3)n2)cc1` [Example 108, N-{1-[5-((S)-3-Fluoro-pyrrolidin-1-yl)-pyridin-2-ylmethyl]-1H-pyrazol-3-yl}-2-(4-isopropyl-phenyl)-acetamide] to `COc1ccc(Cn2ccc(NC(=O)Cc3ccc(C(C)C)cc3)n2)nc1` [Example 131, 2-(4-Isopropyl-phenyl)-N-[1-(5-methoxy-pyridin-2-ylmethyl)-1H-pyrazol-3-yl]-acetamide], the IC50 falls from 0.322 µM to 0.088 µM (3.7-fold). The second is the more potent here.

First: N#Cc1cc(Cn2ccc(NC(=O)Cc3ccc(OC4COC4)cc3)n2)ccc1F [Example 269, N-[1-(3-Cyano-4-fluoro-benzyl)-1H-pyrazol-3-yl]-2-[4-(oxetan-3-yloxy)-phenyl]-acetamide]
Second: N#Cc1cc(Cn2ccc(NC(=O)Cc3ccc(OCC4(F)COC4)cc3)n2)ccc1F [Example 267, N-[1-(3-Cyano-4-fluoro-benzyl)-1H-pyrazol-3-yl]-2-[4-(3-fluoro-oxetan-3-ylmethoxy)-phenyl]-acetamide]
The IC50 of the first is 1.8-fold higher: 0.162 µM for the first, 0.09 µM for the second.

First: O=C(Cc1ccc(-c2ccncn2)cc1)Nc1ccn(Cc2ccc(F)cc2)n1 [Example 87, N-[1-(4-Fluoro-benzyl)-1H-pyrazol-3-yl]-2-(4-pyrimidin-4-yl-phenyl)-acetamide]
Second: COC(C)c1ccc(CC(=O)Nc2ccn(Cc3ccc(F)cc3)n2)cc1 (racemic) [Example 201, rac-N-[1-(4-Fluoro-benzyl)-1H-pyrazol-3-yl]-2-[4-(1-methoxy-ethyl)-phenyl]-acetamide]
The IC50 of the first is 5.2-fold higher: 0.157 µM for the first, 0.03 µM for the second. The second is the more potent here.

Compared with `O=C(Cc1ccc(CC2CC2)cc1)Nc1ccn(Cc2ccc(F)cc2)n1` [Example 158, 2-(4-Cyclopropylmethyl-phenyl)-N-[1-(4-fluoro-benzyl)-1H-pyrazol-3-yl]-acetamide], `O=C(Cc1ccc(OCC(F)(F)F)cc1)Nc1ccn(Cc2ccc(F)cc2)n1` [Example 46, N-[1-(4-Fluoro-benzyl)-1H-pyrazol-3-yl]-2-[4-(2,2,2-trifluoro-ethoxy)-phenyl]-acetamide] is 2.4-fold higher in IC50: 0.011 µM for the first, 0.026 µM for the second.

`O=C(Cc1ccc(OCC2CC(F)(F)C2)cc1)Nc1ccn(Cc2ccc(F)c(F)c2)n1` [Example 244, N-[1-(3,4-Difluoro-benzyl)-1H-pyrazol-3-yl]-2-[4-(3,3-difluoro-cyclobutylmethoxy)-phenyl]-acetamide] and `O=C(Cc1ccc(OCC2(F)COC2)cc1)Nc1ccn(Cc2ccc(F)c(F)c2)n1` [Example 245, N-[1-(3,4-Difluoro-benzyl)-1H-pyrazol-3-yl]-2-[4-(3-fluoro-oxetan-3-ylmethoxy)-phenyl]-acetamide] are within 1.5-fold of each other in IC50: 0.033 µM for the first, 0.03 µM for the second.

Going from `CC1(COc2ccc(CC(=O)Nc3ccn(Cc4ccc(C#N)cn4)n3)cc2)CC(F)(F)C1` [Example 303, N-[1-(5-Cyano-pyridin-2-ylmethyl)-1H-pyrazol-3-yl]-2-[4-(3,3-difluoro-1-methyl-cyclobutylmethoxy)-phenyl]-acetamide] to `N#Cc1ccc(Cn2ccc(NC(=O)Cc3ccc(OCC4COC4)cc3)n2)cc1` [Example 286, N-[1-(4-Cyano-benzyl)-1H-pyrazol-3-yl]-2-[4-(oxetan-3-ylmethoxy)-phenyl]-acetamide], the IC50 rises from 0.051 µM to 0.393 µM (7.7-fold). The first is the more potent here.

`CC(C)c1ccc(CC(=O)Nc2ccn(Cc3ccc(C#N)c(C(F)F)n3)n2)cc1` [Example 385, N-[1-(5-Cyano-6-difluoromethyl-pyridin-2-ylmethyl)-1H-pyrazol-3-yl]-2-(4-isopropyl-phenyl)-acetamide] and `CCc1nc(Cn2ccc(NC(=O)Cc3ccc(C(C)C)cc3)n2)ccc1C#N` [Example 115, N-[1-(5-Cyano-6-ethyl-pyridin-2-ylmethyl)-1H-pyrazol-3-yl]-2-(4-isopropyl-phenyl)-acetamide] are within 1.5-fold of each other in IC50: 0.044 µM for the first, 0.057 µM for the second.

`COc1c(F)cc(Cn2ccc(NC(=O)Cc3ccc(N(C)C)nc3)n2)cc1F` [Example 43, N-[1-(3,5-Difluoro-4-methoxy-benzyl)-1H-pyrazol-3-yl]-2-(6-dimethylamino-pyridin-3-yl)-acetamide] and `CN(C)c1ccc(CC(=O)Nc2ccn(Cc3ccc(Cl)c(C(F)(F)F)c3)n2)cc1` [Example 27, N-[1-(4-Chloro-3-trifluoromethyl-benzyl)-1H-pyrazol-3-yl]-2-(4-dimethylamino-phenyl)-acetamide] are within 1.5-fold of each other in IC50: 0.082 µM for the first, 0.061 µM for the second.

Compared with `CN(C)c1ccc(CC(=O)Nc2ccn(Cc3ccc(C(C)(C)C)cc3)n2)cc1` [Example 18, N-[1-(4-tert-Butyl-benzyl)-1H-pyrazol-3-yl]-2-(4-dimethylamino-phenyl)-acetamide], `CC(C)Cc1nc(Cn2ccc(NC(=O)Cc3ccc(C(C)C)cc3)n2)ccc1C#N` [Example 134, N-[1-(5-Cyano-6-isobutyl-pyridin-2-ylmethyl)-1H-pyrazol-3-yl]-2-(4-isopropyl-phenyl)-acetamide] is 17-fold higher in IC50: 0.025 µM for the first, 0.428 µM for the second. The first is the more potent here.
